# Assay results reported in patent US20230151434A1, “REAWAKENING OF DORMANT TUMOR CELLS BY MODIFIED LIPIDS DERIVED FROM STRESS ACTIVATED NEUTROPHILS” (The Wistar Institute of Anatomy and Biology, priority 2020, published 2023).
# Like-named read-outs stand apart in the source and are kept apart here.
# Legend:
# KPr^p53A cells = experiment: In vitro co-culture of dormant tumor cells with PMN (count of GFP+ cells); type: cell-based, mouse; conditions: for reactivation/proliferation of KPr^p53A cells cultured with PMN plus supplement: supplement added with PMN, LPS 0.5 to 2 μg/ml
# Procedure: (§1) The KPr cell line (16) was maintained in RPMI 1640 medium (Corning) and 10% FBS (Gibco). Treatment of KPr cells with 250 nM 4-hydroxytamoxifen (4-OHT, Sigma-Aldrich) induced p53 expression. p53-induced cells (KPr^p53) were stained with CellTrace dye for 20 min at 37° C. according to the manufacturer's instructions (Life Technologies) and seeded at 8500 cells/cm^2 in culture in a T175 tissue culture-treated flask (Gibco). After 7 days, cells were detached and sorted based on the CellTrace dye intensity as proliferating (KPr^p53P, with lower CellTrace) and arrested cells (KPr^p53A, with higher-intensity CellTrace; see FIG. 1A for representative image). LL2 cells were seeded at 1000 cells/cm2 and treated for 3 days with 2.5 μM cisplatin (Selleckchem). After that, cells were stained with CellTrace and sorted as described above. OVCAR3 cell senescence was induced by treating 5×10^4 cells/cm2 with 0.5 μM cisplatin for 72 hours. After that time, cells were stained with CellTrace and sorted. A549 senescence was induced by 72-hour treatment with 4 μM cisplatin and cells were sorted after staining with CellTrace. Time points for sorting were chosen as the best to observe separation between arrested and proliferating cells. Cells were sorted on Astrios (Beckman Coulter) or Melody (Becton Dickinson) fluorescence-activated cell sorters.
# (§2) Arrested tumor cells were plated at 100 cells/cm^2 in a 48-well tissue culture-treated plate (Costar) for coculture experiments. After 24 hours, PMN-MDSC or PMN were added at indicated ratios. Cocultures were maintained for 48 hours in RPMI 1640+10% FBS in the presence of mouse recombinant GM-CSF (10 ng/ml; Rocky Hill) to ensure neutrophil viability. All control conditions were in the presence of media with GM-CSF. All indicated supplements (NE, S100A8/A9, BGJ398, ICI 118-551, IL-2, MPO inhibitor, LPS, lipids, PMA, and thapsigargin 1 μM) were added to culture at the same time as PMN and maintained for 48 hours. After that, media were removed and replaced by fresh media without GM-CSF. After 1 week, GFP^+ cells in wells were counted via an inverted microscope. When lipid extracts were used, lipids were added to dormant cells in culture at 1 to 0.05 or 0.01 nmol as indicated in each experiment.
# PMN [1] = experiment: PMN viability (proportion of live PMN); type: cell-based, mouse
# Procedure: FIG. 2A-FIG. 2K show neutrophil-mediated reactivation of dormant cells is regulated by stress-induced S100A8/A9. (FIG. 2A) Fold increase in the number of KPr^p53A cells cultured in the presence of PMN and S100A8/A9 or indicated cytokines relative to KPr^p53A cells cultured with PMN. Three independent experiments with 16 replicates were performed. Mean±SEM of one experiment is shown. (FIG. 2B) Fold increase in the number of KPr^p53A cells cultured in the presence of PMN and LPS relative to KPr^p53A cells cultured with PMN or alone. Means±SEM of three independent experiments with 16 replicates each are shown. (FIG. 2C) Fold increase in the number of KPr^p53A cells cultured in the presence of S100A8/A9 alone, PMN and S100A8/A9, or PMN-MDSC relative to KPr^p53A cultured alone. Means±SEM of 10 independent experiments with 16 replicates each are shown. (FIG. 2D) S100A8/A9 protein produced by PMN after treatment with indicated hormones or LPS was measured by ELISA. PMN-MDSC were isolated from spleens of Lewis lung carcinoma tumor-bearing mice. Means±SEM and results of each independent experiment with three replicates are shown. (FIG. 2E) S100A8/A9 protein secreted in vitro from PMN and PMN treated with NE with or without ICI-118; […] as measured by ELISA. Means±SEM and results of independent experiment with three replicates are shown. (FIG. 2F) Flow cytometry staining of ADRB2 receptor (dark gray) on PMN isolated from mouse spleen. Isotype control, light gray. Representative histogram of three experiments is shown. (FIG. 2G) Fold increase in the number of KPr^p53A cells cultured with PMN alone, NE alone, PMN and NE together, and PMN and NE plus ICI-118; 553 relative to KPr^p53A cells cultured alone (Ctrl). Ten independent experiments with 16 replicates for each experiment were performed. Means±SEM in a representative experiment are shown. (FIG. 2H) Number of KPr^p53A cells cultured in the presence of PMN from S100a9KO mice alone or together with NE relative to KPr^p53A cells cultured alone (ctrl). Means±SEM are reported for 16 replicates. (FIG. 2I) Percentage of live PMN after overnight incubation with NE, S100A8/A9, or LPS. Each dot represents the average of three experimental replicates of one single experiment. Means±SEM are shown for each group. (FIG. 2J) Fold increase in number of LL2^CisA cells cultured with PMN alone or together with S100A8/A9 or NE relative to LL2^CisA cultured alone (Ctrl). Means±SEM of three independent experiments with 16 replicates each are shown. […] In all panels, P values were calculated using ANOVA test with correction for multiple comparisons.
# FIG. 11A-FIG. 11G show the mechanism of dormant tumor cell reactivation. […] P values were calculated by ANOVA test with correction for multiple comparisons. […]
# PMN [2] = experiment: S100A8/A9 release by PMN measured by ELISA; type: cell-based, mouse
# Procedure: PMN or PMN-MDSC were isolated from spleen of tumor-free mice or LLC tumor-bearing mice, respectively. A total of 5×10^5 LLC cells were injected into the right flank of mice, and spleens were harvested when tumors reached 200 mm^2. Spleens were mechanically dissociated. Red blood cells were lysed with ACK buffer cells. Splenocytes were stained with mouse biotin-conjugated Ly6G antibody (Miltenyi Biotec) followed by biotin microbeads. Ly6G+ cells were purified by magnetic separation with MACS column for magnetic cell isolation, according to the manufacturer's instructions (Miltenyi Biotec).
# One hundred microliters of mouse peripheral blood was collected from facial vein. NE was measured by a mouse NE ELISA Kit (Novus Biologicals). S100A8/A9 was measured by Mouse S100A8/S100A9 Heterodimer DuoSet ELISA (R&D Systems). S100A8/A9 concentrations in human serum samples were determined by using a double-sandwich ELISA system as previously described (64), which is different from commercial ELISA kits. Human NE was measured using an ELISA kit (Abnova).
# [3] = tested on: LL2^cisA and AT-3^DoxA cells; experiment: In vitro co-culture of chemotherapy-arrested mouse tumor cells with PMN; type: cell-based; conditions: LL2^cisA, AT-3^DoxA
# Procedure: as §1, §2
# [4] = tested on: A549^cisA and OVCAR3^cisA cells; experiment: In vitro co-culture of chemotherapy-arrested human tumor cells with human PMN; type: cell-based; conditions: A549^cisA, OVCAR3^cisA
# Procedure: as §1, §2
# [5] = tested on: LL2, A549 and OVCAR3 cells; experiment: Cisplatin-induced tumor cell dormancy; type: cell-based, mouse; human; conditions: LL2 2.5 μM, A549 4 μM, OVCAR3 0.5 μM, 72 hours
# Procedure: as §1, with “sorters. […]” for “sorters.”
# [6] = PMN treated with stress hormones or LPS
molecule,measurement,setting,value
IL-6: proinflammatory cytokine,reactivation/proliferation of KPr^p53A cells cultured with PMN plus supplement,KPr^p53A cells,did not induce their ability to reactivate dormant KPr^p53A cells
Lipopolysaccharide [LPS],PMN viability,PMN [1]; overnight incubation,markedly reduced it
same,reactivation/proliferation of KPr^p53A cells cultured with PMN plus supplement,KPr^p53A cells,did not affect the ability of PMN to reactivate KPr^p53A cells
NCCc1c[nH]c2ccc(O)cc12 [serotonin],S100A8/A9 release by PMN,PMN [2]; [6],caused rapid release of S100A8/A9 proteins
C/C=C(/C)C(=O)O[C@H]1C(C)=C2[C@H]([C@@H]1OC(=O)CCCCCCC)[C@@](C)(OC(C)=O)C[C@H](OC(=O)CCC)[C@@]1(O)[C@H]2OC(=O)[C@@]1(C)O [thapsigargin],reactivation/proliferation of KPr^p53A cells cultured with PMN plus supplement,KPr^p53A cells,did not induce their ability to reactivate dormant KPr^p53A cells
C[C@]12CCC(=O)C=C1CC[C@@H]1[C@@H]2[C@@H](O)C[C@@]2(C)[C@H]1CC[C@]2(O)C(=O)CO [cortisol],S100A8/A9 release by PMN,PMN [2]; [6],caused rapid release of S100A8/A9 proteins
"NC[C@H](O)c1ccc(O)c(O)c1 [NE, norepinephrine]",PMN viability,PMN [1],did not affect PMN viability
same,proliferation of arrested mouse tumor cells cultured with mouse PMN plus supplement,[3],reactivated dormant mouse and human tumor cells
same,reactivation of arrested human tumor cells cultured with human PMN plus supplement,[4],reactivated dormant mouse and human tumor cells
same,S100A8/A9 release by PMN,PMN [2]; [6],caused rapid release of S100A8/A9 proteins
same,"reactivation/proliferation of KPr^p53A cells, supplement alone",KPr^p53A cells; absence of PMN,did not affect the proliferation of KPr^p53A cells
same,reactivation/proliferation of KPr^p53A cells cultured with PMN plus supplement,KPr^p53A cells,caused proliferation of tumor cells
CNC[C@H](O)c1ccc(O)c(O)c1 [epinephrine],S100A8/A9 release by PMN,PMN [2],caused rapid release of S100A8/A9 proteins
N.N.[Cl][Pt][Cl] [cisplatin],induction of proliferation arrest / senescence-like phenotype in tumor cells,[5],caused a senescence-like phenotype in tumor cells in vitro
same,induction of proliferation arrest / senescence-like phenotype in tumor cells,[5]; listed as Cisplatin,generated proliferation-arrested cells
"CCCCCCCCCCCCCC(=O)O[C@@H]1[C@@H](C)[C@@]2(O)[C@@H](C=C(CO)C[C@]3(O)C(=O)C(C)=C[C@@H]23)[C@@H]2C(C)(C)[C@]12OC(C)=O [PMA, phorbol 12-myristate 13-acetate]",reactivation/proliferation of KPr^p53A cells cultured with PMN plus supplement,KPr^p53A cells,did not induce their ability to reactivate dormant KPr^p53A cells
TNF a,reactivation/proliferation of KPr^p53A cells cultured with PMN plus supplement,KPr^p53A cells,did not induce their ability to reactivate dormant KPr^p53A cells
PE (18:0p/20:4) [Untreated PE],proliferation of KPr^p53A cells cultured with lipids,"KPr^p53A cells; lipids added to dormant cells, no PMN",did not activate proliferation of KPr^p53A cells
"IL-10: proinflammatory cytokine as printed (protein, UniProt P22301 19-178, looked up) Interleukin-10: SPGQGTQSENSCTHFPGNLPNMLRDLRDAFSRVKTFFQMKDQLDNLLLKESLLEDFKGYLGCQALSEMIQFYLEEVMPQAENQDPDIKAHVNSLGENLKTLRLRLRRCHRFLPCENKSKAVEQVKNAFNKLQEKGIYKAMSEFDIFINYIEAYMTMKIRN",reactivation/proliferation of KPr^p53A cells cultured with PMN plus supplement,KPr^p53A cells,did not induce their ability to reactivate dormant KPr^p53A cells
"human S100A8/A9: human recombinant S100A8/A9 (protein, UniProt P05109 1-93; P06702 1-114, looked up) Protein S100-A8: MLTELEKALNSIIDVYHKYSLIKGNFHAVYRDDLKKLLETECPQYIRKKGADVWFKELDINTDGAVNFQEFLILVIKMGVAAHKKSHEESHKE Protein S100-A9: MTCKMSQLERNIETIINTFHQYSVKLGHPDTLNQGEFKELVRKDLQNFLKKENKNEKVIEHIMEDLDTNADKQLSFEEFIMLMARLTWASHEKMHEGDEGPGHHHKPGLGEGTP",reactivation of arrested human tumor cells cultured with human PMN plus supplement,[4],reactivation of A549^cisA and OVCAR3^cisA cells
